# Test results published in patent publication US20260078119A1, “DEGRADER COMPOUNDS AND USES THEREOF” (Bristol-Myers Squibb Company, priority 2024, published 2026).
# pEC50: −log10 of the molar value. Read-outs that look alike come from different tables or passages of the source.
# Legend:
# FAK = biological target: T1, FAK (Homo sapiens, UniProt Q05397); experiment: FAK-HiBiT Degradation Assay; assay type: cell-based; conditions: for DC50: read-out: FAK HiBiT EC50; for FAK HiBiT Ymin: lower limit of the four parameter fit (value A), Ymax derived using DMSO control, JHH-4-FAK-HiBiT cells, two hours
# T1 construct: homozygous knock-in of a HiBiT tag (Promega Corporation, Madison, WI) to the C-terminus of the FAK gene in its natural genomic locus; endogenous in cells; host or cells: JHH-4-FAK-HiBiT clone d01 (CRISPR-Cas9 knock-in at the endogenous locus)
# T1 sequence (Q05397 whole entry): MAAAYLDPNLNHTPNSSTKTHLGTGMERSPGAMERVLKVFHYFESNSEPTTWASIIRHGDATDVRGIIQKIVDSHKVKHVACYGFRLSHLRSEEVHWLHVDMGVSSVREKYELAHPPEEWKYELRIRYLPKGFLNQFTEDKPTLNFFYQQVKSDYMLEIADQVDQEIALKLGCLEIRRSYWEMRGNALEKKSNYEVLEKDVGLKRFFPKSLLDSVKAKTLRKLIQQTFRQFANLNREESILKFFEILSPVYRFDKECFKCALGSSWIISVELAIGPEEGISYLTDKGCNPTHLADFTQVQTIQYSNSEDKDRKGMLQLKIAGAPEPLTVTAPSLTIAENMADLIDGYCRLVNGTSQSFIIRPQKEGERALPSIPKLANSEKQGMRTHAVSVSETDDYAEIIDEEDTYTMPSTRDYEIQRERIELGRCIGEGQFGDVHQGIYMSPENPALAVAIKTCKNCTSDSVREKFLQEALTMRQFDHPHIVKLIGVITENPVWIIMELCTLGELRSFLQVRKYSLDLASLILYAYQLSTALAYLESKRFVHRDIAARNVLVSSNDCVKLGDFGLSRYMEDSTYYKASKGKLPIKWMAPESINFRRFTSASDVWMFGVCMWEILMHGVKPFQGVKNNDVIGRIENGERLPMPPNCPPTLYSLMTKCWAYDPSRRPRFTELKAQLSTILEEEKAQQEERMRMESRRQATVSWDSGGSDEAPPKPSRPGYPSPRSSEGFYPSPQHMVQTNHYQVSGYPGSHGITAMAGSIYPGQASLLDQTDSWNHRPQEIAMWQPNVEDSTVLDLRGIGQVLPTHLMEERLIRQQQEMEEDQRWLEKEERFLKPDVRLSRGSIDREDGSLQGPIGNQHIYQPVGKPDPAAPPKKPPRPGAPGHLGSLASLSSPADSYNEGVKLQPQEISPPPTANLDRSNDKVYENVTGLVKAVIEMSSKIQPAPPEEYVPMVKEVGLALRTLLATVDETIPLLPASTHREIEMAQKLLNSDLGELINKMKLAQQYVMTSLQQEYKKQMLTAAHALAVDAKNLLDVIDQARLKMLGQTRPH
# From the text: To generate JHH-4-FAK-HiBiT cells for the FAK degradation assay, JHH-4 cells (Japanese Collection of Research Biosources Cell Bank, Japan) were transfected with ribonucleoprotein reagents to introduce, by CRISPR-Cas9 editing, the homozygous knock-in of a HiBiT tag (Promega Corporation, Madison, WI) to the C-terminus of the FAK gene in its natural genomic locus. Clonal cell populations were established by expanding single cells after CRISPR-Cas9 editing, with a clonal cell line named JHH-4-FAK-HiBiT clone d01 confirmed by next generation DNA sequencing to contain the expected HiBiT edited FAK gene and was selected for FAK degradation screening. Cells were selected and maintained in complete DMEM media (DMEM, 10% Heat Inactivated FBS, and Non-Essential Amino Acids at 37° C. and 5% CO2). Cells were passaged every 3-4 days by reseeding 0.5×10^6 cells in a T75 flask.
# Cells were dispensed into 384-well white plates (Corning #3570, NY) that were pre-spotted with compounds using an acoustic dispenser (Echo acoustic transfer system, Beckman Coulter Life Sciences, Carlsbad, CA) as a 10-point dose response curve with a 3-fold dilution starting at 1 μM and including a DMSO control. Twenty-five microliters of media containing 2000 JHH-4-FAK-HiBiT Clone d01 cells was dispensed per well. Assay plates were incubated at 37° C. with 5% CO2 for two hours. After incubation, 25 μL of Nano-Glo HiBiT Lytic Reagent Working Solution (Promega Corporation, Madison, WI) was added to each well and incubated at room temperature for 10 minutes protected from light. After 10 minutes, luminescence was read on a PHERAstar luminometer (BMG Labtech, Cary, NC).
# To determine the half-maximal effective concentration (EC50) values for FAK-HiBIT degradation, a four parameter logistic model was used: (Sigmoidal Dose-Response Model)(FIT=(A+((B−A)/1+((C/x)^D)))) where C is the inflection point (EC50), D is the Hill slope, and A and B are the low and high limits of the fit respectively). The lower limit of the fit (value A) is referred to as Ymin. The maximum limit constraint, Ymax, was derived using DMSO control. The curves were processed and evaluated using Dotmatics Atlas (Insightful Science, LLC, Boston, MA).
# CAL-51 cells = experiment: CAL-51 Cell Proliferation Assay; assay type: cell-based; conditions: for pEC50: 120 hours incubation, 10-point dose response, 4-fold dilutions starting at 10 μM, Cell-Titer-Glo, read-out: CAL-51 Prolif EC50; for CAL-51 Prolif Ymin: minimal percent of DMSO control observed in the concentrations tested (Ymin-obs), 120 hours
# From the text: CAL-51 cells were obtained from Bristol Myers Squibb internal cell banks (originally sourced from DSMZ-German Collection of Microorganisms and Cell Cultures GmbH, Germany) and cultured in RPMI complete media (RPMI-1640, 10% Fetal Bovine serum, 1× Antibiotic-Antimycotic, and 1× Non-Essential Amino Acids). Compounds were dispensed into 384-well plates using an acoustic dispenser (Beckman Coulter Life Sciences, Carlsbad, CA) in duplicate with 14 compounds on each plate. For each compound, a 10-point dose response was printed at 4-fold dilutions starting at 10 μM. The DMSO concentration was kept constant for a final assay concentration of 0.1% per well assuming 50 uL final media volume. Compound plates were sealed and frozen at −20° C. until use.
# For each assay batch, compound plates were thawed and allowed to reach room temperature, and cells were seeded at 350 cells per well in 50 μl complete RPMI media. After 120 hours of incubation at 37° C. and 5% CO2, cells were lysed by addition of 25 μL of Cell-Titer-Glo Reagent (Promega Corporation, Madison, WI), as per manufacturer's instructions, protected from light, shaken for 20 minutes, and total luminescence read by a CLARIOstar Plus plate reader (BMG LabTech, Cary, NC). Total luminescence signal is linearly correlated with cell number remaining in the well.
# Luminescence data was processed per plate by subtracting reagent-only “blank” well luminescence from all measured values and calculating a percent of DMSO control value for each treatment well. Then, to determine the half-maximal effective concentration (EC50) values for cell growth inhibition, a four parameter logistic model was fit to the data for each DMSO-normalized compound: Sigmoidal Dose-Response Model: (FIT=(A+((B−A)/1+((C/x)^D)))) where C is the inflection point (EC50), D is the Hill slope, and A and B are the low and high limits of the fit respectively. The lower limit of the fit (value A) is referred to as Ymin-calculated. The minimal percent of DMSO control that is observed in the concentrations tested for each compound is labeled as “Ymin-obs”, and was recorded and reported in the tables. Sigmoidal fit curves were processed and evaluated using Dotmatics Atlas (Insightful Science, LLC, Boston, MA).
# [1] = JHH-4-FAK-HiBiT clone d01 cells, two hours incubation, 10-point dose response, 3-fold dilution starting at 1 μM, Nano-Glo HiBiT luminescence
DC50 (FAK; [1]),FAK HiBiT Ymin (FAK),pEC50 (FAK; [1]),SMILES,pEC50 (CAL-51 cells; Homo sapiens),CAL-51 Prolif Ymin (CAL-51 cells),pEC50 (CAL-51 cells)
0.5 nM,8.05,–,"O=C1CC[C@H](N2Cc3cc(Cn4ncc5c(-c6ncc(C(F)(F)F)cc6Cl)cc(N6CC(F)C6)nc54)ccc3C2=O)C(=O)N1 [Example 6, (3S)-3-[5-({4-[3-chloro-5-(trifluoromethyl)pyridin-2-yl]-6-(3-fluoroazetidin-1-yl)-1H-pyrazolo[3,4-b]pyridin-1-yl}methyl)-1-oxo-2,3-dihydro-1H-isoindol-2-yl]piperidine-2,6-dione]",9.40,31.07,–
0.95 nM,7.50,–,"O=C1CCC(N2Cc3cc(Cn4ccc5c(-c6ncc(C(F)(F)F)cc6Cl)cc(N6CC(F)C6)nc54)ccc3C2=O)C(=O)N1 (stereo not shown) [Example 15, 3-(5-((4-(3-chloro-5-(trifluoromethyl)pyridin-2-yl)-6-(3-fluoroazetidin-1-yl)-1H-pyrrolo[2,3-b]pyridin-1-yl)methyl)-1-oxoisoindolin-2-yl)piperidine-2,6-dione]",9.05,29.00,–
≥ 1000 nM,96.37,–,"CCc1cc2c(-c3ncc(C(F)(F)F)cc3Cl)cc(N3CC(F)C3)nc2n1Cc1ccc2c(c1)CN(C1CCC(=O)NC1=O)C2=O (stereo not shown) [Example 16, 3-(5-((4-(3-chloro-5-(trifluoromethyl)pyridin-2-yl)-2-ethyl-6-(3-fluoroazetidin-1-yl)-1H-pyrrolo[2,3-b]pyridin-1-yl)methyl)-1-oxoisoindolin-2-yl)piperidine-2,6-dione]",6.53,81.53,–
0.86 nM,8.55,–,"O=C1CCC(N2Cc3cc(Cn4cnc5c(-c6ccc(C(F)(F)F)cc6Cl)cc(N6CC(F)C6)nc54)ccc3C2=O)C(=O)N1 (stereo not shown) [Example 19, 3-(5-((7-(2-chloro-4-(trifluoromethyl)phenyl)-5-(3-fluoroazetidin-1-yl)-3H-imidazo[4,5-b]pyridin-3-yl)methyl)-1-oxoisoindolin-2-yl)piperidine-2,6-dione]",9.42,23.48,–
0.89 nM,7.90,–,"Cc1nc2c(-c3ccc(C(F)(F)F)cc3Cl)cc(N3CC(F)C3)nc2n1Cc1ccc2c(c1)CN(C1CCC(=O)NC1=O)C2=O (stereo not shown) [Example 20, 3-(5-((7-(2-chloro-4-(trifluoromethyl)phenyl)-5-(3-fluoroazetidin-1-yl)-2-methyl-3H-imidazo[4,5-b]pyridin-3-yl)methyl)-1-oxoisoindolin-2-yl)piperidine-2,6-dione]",9.43,24.38,–

# Continued, compound first:
SMILES,DC50 (FAK; [1]),FAK HiBiT Ymin (FAK),pEC50 (FAK; [1]),pEC50 (CAL-51 cells; Homo sapiens),CAL-51 Prolif Ymin (CAL-51 cells),pEC50 (CAL-51 cells)
"CN(C)c1cc(-c2ncc(C(F)(F)F)cc2Cl)c2cnn(Cc3ccc4c(c3)CN(C3CCC(=O)NC3=O)C4=O)c2n1 (stereo not shown) [Example 5, 3-[5-({4-[3-chloro-5-(trifluoromethyl)pyridin-2-yl]-6-(dimethylamino)-1H-pyrazolo[3,4-b]pyridin-1-yl}methyl)-1-oxo-2,3-dihydro-1H-isoindol-2-yl]piperidine-2,6-dione]",0.42 nM,6.93,–,9.44,29.57,–
"O=C1CC[C@H](N2Cc3cc(Cn4ncc5c(-c6ncc(OC(F)(F)F)cc6Cl)cc(N6CC(F)C6)nc54)ccc3C2=O)C(=O)N1 [Example 7, (S)-3-(5-((4-(3-chloro-5-(trifluoromethoxy)pyridin-2-yl)-6-(3-fluoroazetidin-1-yl)-1H-pyrazolo[3,4-b]pyridin-1-yl)methyl)-1-oxoisoindolin-2-yl)piperidine-2,6-dione]",0.57 nM,8.83,–,9.44,21.87,–
"O=C1CCC(N2Cc3cc(Cn4ncc5c(-c6ncc(Cl)cc6Cl)c(F)c(N6CC(F)C6)nc54)ccc3C2=O)C(=O)N1 (stereo not shown) [Example 8, 3-(5-{[4-(3,5-dichloropyridin-2-yl)-5-fluoro-6-(3-fluoroazetidin-1-yl)-1H-pyrazolo[3,4-b]pyridin-1-yl]methyl}-1-oxo-2,3-dihydro-1H-isoindol-2-yl)piperidine-2,6-dione]",0.55 nM,9.05,–,9.07,17.44,–
"N#Cc1ccc(-c2c(Cl)c(N3CC(F)C3)nc3c2cnn3Cc2ccc3c(c2)CN(C2CCC(=O)NC2=O)C3=O)c(F)c1 (stereo not shown) [Example 10, 4-(5-chloro-1-{[2-(2,6-dioxopiperidin-3-yl)-1-oxo-2,3-dihydro-1H-isoindol-5-yl]methyl}-6-(3-fluoroazetidin-1-yl)-1H-pyrazolo[3,4-b]pyridin-4-yl)-3-fluorobenzonitrile]",0.56 nM,6.93,–,7.12,33.21,–
"O=C1CCC(N2Cc3cc(Cn4ncc5c(-c6ncc(C(F)(F)F)cc6Cl)cc(N6CCCC6)nc54)ccc3C2=O)C(=O)N1 (stereo not shown) [Example 11, 3-[5-({4-[3-chloro-5-(trifluoromethyl)pyridin-2-yl]-6-(pyrrolidin-1-yl)-1H-pyrazolo[3,4-b]pyridin-1-yl}methyl)-1-oxo-2,3-dihydro-1H-isoindol-2-yl]piperidine-2,6-dione]",0.64 nM,6.28,–,9.47,22.89,–
"CN(C)c1cc(-c2ccc(C#N)cc2Cl)c2cnn(Cc3ccc4c(c3)CN(C3CCC(=O)NC3=O)C4=O)c2n1 (stereo not shown) [Example 12, 3-chloro-4-[6-(dimethylamino)-1-{[2-(2,6-dioxopiperidin-3-yl)-1-oxo-2,3-dihydro-1H-isoindol-5-yl]methyl}-1H-pyrazolo[3,4-b]pyridin-4-yl]benzonitrile]",0.67 nM,7.50,–,9.00,23.97,–
"CN(C)c1cc(-c2ncc(C#N)cc2Cl)c2c(n1)N(Cc1ccc3c(c1)CN(C1CCC(=O)NC1=O)C3=O)CC2 (stereo not shown) [Example 14, 5-chloro-6-(6-(dimethylamino)-1-((2-(2,6-dioxopiperidin-3-yl)-1-oxoisoindolin-5-yl)methyl)-2,3-dihydro-1H-pyrrolo[2,3-b]pyridin-4-yl)nicotinonitrile]",–,7.20,7.84,–,23.56,8.30
"O=C1CCC(N2Cc3cc(Cn4ccc5c(-c6ncc(F)cc6Cl)cc(N6CC(F)C6)nc54)ccc3C2=O)C(=O)N1 (stereo not shown) [Example 17, 3-(5-((4-(3-chloro-5-fluoropyridin-2-yl)-6-(3-fluoroazetidin-1-yl)-1H-pyrrolo[2,3-b]pyridin-1-yl)methyl)-1-oxoisoindolin-2-yl)piperidine-2,6-dione]",3.36 nM,7.42,–,8.46,28.46,–
